These results are taken from US20250326748A1, “COMPOUNDS AND METHODS FOR MODULATING SPLICING” (REMIX THERAPEUTICS INC., priority 2022, published 2025).

Where a name gives a salt, the structure may show the parent alone. Read-outs that look alike come from different tables or passages of the source. Bounds are passed on as bounds.

Assay type in all cases: cell-based, human
In one experiment the test system is HTT mRNA. In words: Splicing RT-qPCR assay, HTT canonical (CJ) and alternative (AJ) junction mRNA. To be noted: Homo sapiens; for IC50: canonical junction mRNA; for AC50: alternative junction mRNA, read-out: HTT AJ (AC50, increase in AJ mRNA). Summed up:
(§1)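 A673 or K562 cells were treated for 24 h at 37 °C with an 11-point 3-fold compound dilution series (top final 10 uM, DMSO ≤0.25%). Lysates then went to one-step TaqMan RT-qPCR quantifying canonical (CJ) and alternative-exon (AJ) junction transcripts, normalized to a housekeeping gene.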
For orientation: In qPCR the cycle at which signal appears reflects the starting amount.

In the next experiment the test system is MYB mRNA. The experiment is described as follows: Splicing RT-qPCR assay, MYB canonical (CJ) and alternative (AJ) junction mRNA. To be noted: Homo sapiens; for IC50: canonical junction mRNA; for AC50: alternative junction mRNA, read-out: MYB AJ (AC50, increase in AJ mRNA). The method, boiled down:
as §1

The next experiment relates to SMN2 mRNA. The experiment is described as follows: Splicing RT-qPCR panel, SMN2 canonical junction (CJ) mRNA. To be noted: Homo sapiens, read-out: SMN2 CJ (decrease in CJ mRNA levels, IC50). Summed up:
(§2)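 A673 cells (DMEM, 10% FBS) or K562 cells (IMDM, 10% FBS) treated 24 h at 37 °C with an 11-point 3-fold dilution, top 10 uM, DMSO ≤0.25%. Canonical-junction mRNA quantified in lysates by RT-qPCR, normalised to GAPDH, GUSB or PPIA and to DMSO (2^−ΔΔCt), then converted to % response.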

The subject of the next experiment is Target C mRNA. In words: Splicing RT-qPCR panel, Target C canonical junction (CJ) mRNA. The note with it: Homo sapiens, read-out: Target C CJ (decrease in CJ mRNA levels, IC50). Summed up:
as §2

Where [1] appears, read: 24 h, RT-qPCR, A673 or K562 cells, 24 hours treatment, read-out: HTT CJ (IC50, decrease in CJ mRNA).
The mark [2] stands for this setting: qPCR panel, read-out: HTT CJ (decrease in CJ mRNA levels, IC50).
Where [3] appears, read: RT-qPCR, A673 or K562 cells, 24 hours treatment.
Where [4] appears, read: qPCR panel, read-out: MYB CJ (decrease in CJ mRNA levels, IC50).
The mark [5] stands for this setting: RT-qPCR, A673 or K562 cells, 24 hours treatment, read-out: MYB CJ (IC50, decrease in CJ mRNA).

For the molecule `C[C@H]1CN(c2cnc3nc(-c4cc5cn(C)nc5cc4O)cc(Cl)c3c2)C[C@H](C)N1` [Compound 242], the IC50 with HTT mRNA (setting [1]) was 100 to 1000 nM; with HTT mRNA (setting [2]), 100 to 1000 nM; in the experiment on MYB mRNA (setting [4]) it was < 100 nM; with MYB mRNA (setting [5]) it was < 100 nM; with SMN2 mRNA, < 100 nM; with Target C mRNA, 1000 to 10000 nM. Also, the results for the AC50 in the experiment with HTT mRNA (setting [3]) and in the experiment on MYB mRNA (setting [3]) were 100 to 1000 nM and < 100 nM, respectively.

As to `C[C@@H]1CN(c2cnc3nc(-c4cc5cn(C)nc5cc4O)cc(Cl)c3c2)C[C@@H](C)N1` [Compound 243, 5-{4-chloro-6-[(3R,5R)-3,5-dimethylpiperazin-1-yl]-1,8-naphthyridin-2-yl}-2-methylindazol-6-ol hydrochloride], the IC50 was 1000 to 10000 nM in the experiment on HTT mRNA (setting [1]); 1000 to 10000 nM with HTT mRNA (setting [2]); 100 to 1000 nM with MYB mRNA (setting [4]); 100 to 1000 nM in the experiment with MYB mRNA (setting [5]); < 100 nM in the experiment with SMN2 mRNA; 1000 to 10000 nM in the experiment with Target C mRNA. The AC50 with HTT mRNA (setting [3]) was in the range of 1000 to 10000 nM; with MYB mRNA (setting [3]), 100 to 1000 nM.

`C[C@H]1CN(c2cnc3nc(-c4cc(F)c5nn(C)cc5c4)cc(Cl)c3c2)C[C@H](C)N1` [Compound 250]: the IC50 in the experiment on HTT mRNA (setting [1]) was 100 to 1000 nM; in the experiment on HTT mRNA (setting [2]), 100 to 1000 nM; in the experiment on MYB mRNA (setting [4]), < 100 nM; in the experiment with MYB mRNA (setting [5]), < 100 nM; in the experiment with SMN2 mRNA it was < 100 nM; in the experiment on Target C mRNA it was 100 to 1000 nM. The AC50 is 100 to 1000 nM with HTT mRNA (setting [3]) and < 100 nM with MYB mRNA (setting [3]).

As for `C[C@@H]1CN(c2cnc3nc(-c4cc(F)c5nn(C)cc5c4)cc(Cl)c3c2)C[C@@H](C)N1` [Compound 251], the IC50 with HTT mRNA (setting [1]) is 1000 to 10000 nM; with HTT mRNA (setting [2]), 1000 to 10000 nM; in the experiment on MYB mRNA (setting [4]), 100 to 1000 nM; with MYB mRNA (setting [5]), 100 to 1000 nM; in the experiment on SMN2 mRNA, < 100 nM; in the experiment on Target C mRNA it was > 10000 nM. In addition, the AC50 in the experiment on HTT mRNA (setting [3]) lay in the range of 1000 to 10000 nM; in the experiment on MYB mRNA (setting [3]) it was 100 to 1000 nM.

`Cc1c(O)c(-c2cc(-c3nnc[nH]3)c3cc(N4C[C@@H](C)N[C@@H](C)C4)cnc3n2)cc2cn(C)nc12` [Compound 261, 5-{6-[(3R,5S)-3,5-dimethylpiperazin-1-yl]-4-(4H-1,2,4-triazol-3-yl)-1,8-naphthyridin-2-yl}-2,7-dimethylindazol-6-ol]: the IC50 in the experiment with HTT mRNA (setting [1]) was > 10000 nM; in the experiment on HTT mRNA (setting [2]) it was < 100 nM; in the experiment on MYB mRNA (setting [4]) it was < 100 nM; in the experiment on MYB mRNA (setting [5]), 1000 to 10000 nM; in the experiment on SMN2 mRNA it was < 100 nM; with Target C mRNA it was 100 to 1000 nM. Also, the concentration at half-maximal activity (AC50) in the experiment with HTT mRNA (setting [3]) and in the experiment on MYB mRNA (setting [3]) was > 10000 nM in each case.

For `C[C@@H]1CN(c2cnc3nc(-c4cc5cn(C)nc5c(F)c4O)cc(C#N)c3c2)C[C@H](C)N1` [Compound 266, 6-[(3R,5S)-3,5-dimethylpiperazin-1-yl]-2-(7-fluoro-6-hydroxy-2-methylindazol-5-yl)-1,8-naphthyridine-4-carbonitrile hydrochloride], the IC50 with HTT mRNA (setting [1]) is 100 to 1000 nM; with HTT mRNA (setting [2]), 100 to 1000 nM; in the experiment with MYB mRNA (setting [4]), < 100 nM; in the experiment on MYB mRNA (setting [5]) it was < 100 nM; with SMN2 mRNA, < 100 nM; in the experiment with Target C mRNA, 1000 to 10000 nM. Besides, the AC50 with HTT mRNA (setting [3]) is 1000 to 10000 nM; in the experiment on MYB mRNA (setting [3]) it was 100 to 1000 nM.

In the case of `CN[C@@H]1CCN(c2cnc3nc(-c4cc5cn(C)nc5c(F)c4O)cc(Cl)c3c2)C1` [Compound 271], the IC50 with HTT mRNA (setting [1]), with HTT mRNA (setting [2]), in the experiment with MYB mRNA (setting [4]), in the experiment on MYB mRNA (setting [5]), with SMN2 mRNA and with Target C mRNA was < 100 nM in each case. The half-maximal activity concentration (AC50) in the experiment on HTT mRNA (setting [3]) and in the experiment on MYB mRNA (setting [3]) was < 100 nM throughout.

The IC50 is the point on the concentration scale where inhibition reaches its midpoint. As a reminder, the AC50 is the midpoint of the concentration-response curve, whichever way the signal moves.
